Key:
[1] = system: dermal neutrophil infiltration, neutrophil marker myeloperoxidase (MPO); experiment: Mouse ear model of TPA-induced contact inflammation: MPO inhibition (dermal neutrophil infiltration); assay type: in vivo; settings: for MPO (myeloperoxidase) inhibition (statement in words): in vivo activity, no dose stated; for % Inhibition MPO: TPA-treated mouse ear, 24 hours
Description: (§1) G. et al., Anti-inflammatory Drugs, Clin. Pharmacol. Ther. 16, 900-4 (1974); Young et al., Tachyphylaxis in 12-Otetradecanoylphorbolacetate-and Arachidonic Acid-Induced Ear Edema; J. Invest. Dermatol. 80:48-52, (1983); Tramposch et al., In Vivo Models of Inflammation, (Morgan D W, Marshall L A eds), Birkhaüser Verlag: Basel, pp 179-204, 1999; and Gordon et al., Topical N-Acetyl-S-Farnesyl-L-Cysteine Inhibits Mouse Skin Inflammation, and Unlike Dexamethasone, Its Effects Are Restricted to the Application Site, J. Invest. Dermatol., 128(3):643-54, 2008 March)]. Moreover, the mouse ear model has been used by various groups to identify and compare members of differing classes of anti-inflammatory agents with multiple mechanisms of action (reviewed in Tramposch et al., 1999, supra).
To assay for inhibition of dermal neutrophil infiltration by S-isoprenyl and S-farnesyl cysteine compounds, a standard method was used (see Bradley et al., 1982, supra; Young et al., 1983, supra; De Young et al, “Edema and Cell Infiltration in the Phorbol Ester-treated Mouse Ear are Temporally Separate and can be Differentially Modulated by Pharmacologic Agents”, Agents Actions, 26(3-4): 335-41 (March 1989); and Rao et al. (1993) Comparative Evaluation of Arachidonic Acid (AA)-and Tetradecanoylphorbol Acetate (TPA)-Induced Dermal Inflammation, Inflammation 17:723-41). Briefly, we homogenized 6 mm biopsy punches taken from both compound-treated ears as well as TPA-treated and non-treated control groups. We quantitated the levels of MPO by a calorimetric reaction that was measured spectrophotometrically. The percent inhibition of neutrophil infiltration by each S-isoprenyl and S-farnesyl cysteine compound was determined by comparing the average MPO levels in the presence and absence of these compounds. […] Gordon et al., “Topical N-acetyl-5-farnesyl-L-cysteine Inhibits Mouse Skin Inflammation, and Unlike Dexamethasone, its Effects Are Restricted to the Application Site”, J. Invest. Derm., Vol. 128 pp. 643-654 (2008).

[2] = system: TPA-treated mouse ears (erythema); experiment: Mouse ear model of TPA-induced contact inflammation: erythema inhibition (Δa* redness, chroma meter); assay type: in vivo; settings: for erythema inhibition (statement in words): in vivo activity, no dose stated; for % Inhibition Erythema: TPA-treated mouse ear, 24 hours
Description: as §1
Another well documented biomarker of skin inflammation is skin redness, termed erythema, which is caused by capillary congestion and dilation in response to various chemical and environmental insults (see Denig, N. I. et al., Irritant Contact Dermatitis. Clues to Causes, Clinical Characteristics, and Control, Postgrad Med., May (1998); 103(5):199-200, 207-8, 212-3). […] The percent inhibition of erythema was determined by taking the average Δa* redness value of compound-treated ears and dividing it by the average Δa* value of 12 ears that only received TPA and subtracting that value from 100%. These values were corrected for the Δa* value of non TPA-treated mouse ears of littermate controls. […] Gordon et al., “Topical N-acetyl-5-farnesyl-L-cysteine Inhibits Mouse Skin Inflammation, and Unlike Dexamethasone, its Effects Are Restricted to the Application Site”, J. Invest. Derm., Vol. 128 pp. 643-654 (2008).

[3] = system: TPA-treated mouse ears (edema); experiment: Mouse ear model of TPA-induced contact inflammation: edema inhibition (ear thickness); assay type: in vivo; settings: for edema inhibition (statement in words): in vivo activity, no dose stated; for % Inhibition Edema: TPA-treated mouse ear, 24 hours
Description: as §1
The protocol for inducing in vivo acute contact inflammation on the ears of live mice has been described elsewhere (reviewed in Tramposch, 1999, supra). In brief, mice were sedated and their ears were treated with 1.2 μg/20 uL TPA (i.e., tetradecanoylphorbol-13-acetate). […] After 24 hours, the mice were sacrificed and edema was measured by taking micrometer readings of each ear. The percent inhibition of edema was determined by taking the average ear thickness of compound-treated ears and dividing it by the average thickness of 12 ears that only received TPA and subtracting that value from 100%. These values were corrected for the thickness of normal, non TPA-treated mouse ears of littermate controls. […] ED50 values were calculated as described in Gordon et al., “Topical N-acetyl-5-farnesyl-L-cysteine Inhibits Mouse Skin Inflammation, and Unlike Dexamethasone, its Effects Are Restricted to the Application Site”, J. Invest. Derm., Vol. 128 pp. 643-654 (2008).

[4] = target: membrane-associated isoprenyl-5-cysteinyl methyltransferase (Homo sapiens, UniProt O60725); settings: background statement; cited from earlier work
Chain of membrane-associated isoprenyl-5-cysteinyl methyltransferase (O60725 whole entry): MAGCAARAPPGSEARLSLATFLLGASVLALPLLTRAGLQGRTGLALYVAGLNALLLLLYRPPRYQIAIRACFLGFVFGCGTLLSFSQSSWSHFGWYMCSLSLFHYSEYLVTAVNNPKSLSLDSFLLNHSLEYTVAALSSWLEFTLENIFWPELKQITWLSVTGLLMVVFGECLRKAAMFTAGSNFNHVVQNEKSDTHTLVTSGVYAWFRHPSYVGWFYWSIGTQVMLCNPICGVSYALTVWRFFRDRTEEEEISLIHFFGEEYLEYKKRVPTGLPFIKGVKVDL

[5] = system: neutrophil, macrophage, and platelet responses; settings: in vitro, background statement; cited from earlier work
dermal inflammation = settings: mice, background statement; cited from earlier work

SMILES	MPO (myeloperoxidase) inhibition (statement in words) [1]	% Inhibition MPO ([1]; topical dose 0.8 mg/20 μL)	erythema inhibition (statement in words) [2]	edema inhibition (statement in words) [3]	% Inhibition Edema ([3]; topical dose 0.8 mg/20 μL)	% Inhibition Erythema ([2]; topical dose 0.8 mg/20 μL)	inhibition of isoprenyl-S-cysteinyl methyltransferase (mode) [4]	block of neutrophil, macrophage and platelet responses [5]	reduction of dermal inflammation (dermal inflammation)	% Inhibition MPO ([1]; topical dose 0.2 mg/20 μL)	% Inhibition Erythema ([2]; topical dose 0.2 mg/20 μL)	% Inhibition Edema ([3]; topical dose 0.2 mg/20 μL)
CC(=O)N[C@@H](CSC/C=C(\C)CC/C=C(\C)CCC=C(C)C)C(=O)NN [Compound A]	MPO (myeloperoxidase) inhibition	— 93.53 ± 1.13%	erythema inhibition	edema inhibition	— 42.36 ± 1.99%	–	–	–	–	–	–	–
CNNC(=O)[C@H](CSC/C=C(\C)CC/C=C(\C)CCC=C(C)C)NC(C)=O [Compound E]	MPO (myeloperoxidase) inhibition	–	erythema inhibition	edema inhibition	— 5.85 ± 7.02%	— 7.68 ± 8.15%	–	–	–	–	–	–
CC(=O)N[C@@H](CSCC=C(C)CCC=C(C)CCC=C(C)C)C(=O)O [AFC, N-acetyl-5-farnesyl-L-cysteine]	–	–	–	–	–	–	competitive inhibitor	block some neutrophil, macrophage, and platelet responses in vitro	effectively reduces dermal inflammation in mice	–	–	–
CC(C)=CCC/C(C)=C/CC/C(C)=C/CSC[C@H](NC(=O)CCC(F)(F)F)C(=O)NN [Compound F]	MPO (myeloperoxidase) inhibition	–	erythema inhibition	edema inhibition	–	–	–	–	–	21.33 ± 12.68 — %	11.04 ± 7.28 — %	7.86 ± 0.98 — %
CC(=O)N[C@@H](CSC/C=C(\C)CC/C=C(\C)CCC=C(C)C)C(=O)NO [Compound B]	MPO (myeloperoxidase) inhibition	— 87.45 ± 1.37%	erythema inhibition	edema inhibition	— 33.64 ± 3.03%	–	–	–	–	–	–	–
CC(=O)NNC(=O)[C@H](CSC/C=C(\C)CC/C=C(\C)CCC=C(C)C)NC(C)=O [Compound D]	MPO (myeloperoxidase) inhibition	–	erythema inhibition	–	–	–	–	–	–	–	–	–
CC(=O)N[C@@H](CSC/C=C(\C)CC/C=C(\C)CCC=C(C)C)C(=O)NNc1ccccc1 [Compound C]	MPO (myeloperoxidase) inhibition	–	erythema inhibition	edema inhibition	–	— 13.41 ± 11.92%	–	–	–	–	–	–
